Measurements from ChEMBL document CHEMBL1201862, “PubChem BioAssay data set” (2004).
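Results reflect a 48-hour exposure of cells in 96-well plates to compound at five concentrations. GI50 marks 50% less growth.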 Calls of active or inactive are those of the source. Cut-off read from the data, not from the text of the source: active = GI50 up to about 1.1 µM and inactive = higher.

What was measured:
Assay in all cases: NCI anticancer screen, dose series, 48 h
A549 = tested on: A549
MDA-MB-231 = tested on: MDA-MB-231
RXF 393 = tested on: RXF 393
HCC 2998 = tested on: HCC 2998
RPMI-8226 = tested on: RPMI-8226
NCI-H226 = tested on: NCI-H226
EKVX = tested on: EKVX
NCI-H23 = tested on: NCI-H23
HOP-62 = tested on: HOP-62
SK-MEL-5 = tested on: SK-MEL-5
UACC-257 = tested on: UACC-257
NCI-H460 = tested on: NCI-H460
KM12 = tested on: KM12
K562 = tested on: K562
SNB-75 = tested on: SNB-75
MOLT-4 = tested on: MOLT-4
LOX IMVI = tested on: LOX IMVI
OVCAR-4 = tested on: OVCAR-4
PC-3 = tested on: PC-3
NCI-H522 = tested on: NCI-H522

Measured: GI50

C=CCCCCCCCCC(=O)ON(Cc1ccc(O)c(OC)c1)C(=O)C(F)(F)F
inactive: A549 > 100 µM | MDA-MB-231 > 100 µM | RXF 393 > 100 µM | HCC 2998 > 100 µM | RPMI-8226 > 100 µM | NCI-H226 21.4 µM | EKVX > 100 µM | NCI-H23 > 100 µM | HOP-62 > 100 µM | SK-MEL-5 > 100 µM | UACC-257 > 100 µM | NCI-H460 > 100 µM | KM12 52.5 µM | K562 75 µM | SNB-75 > 100 µM | MOLT-4 31.3 µM | LOX IMVI > 100 µM | OVCAR-4 > 100 µM

CC(O)(/C=C/c1ccccc1)P(=O)(O)c1ccccc1 (stereo not given)
inactive: A549 > 100 µM | RXF 393 > 100 µM | HCC 2998 47.2 µM | NCI-H226 > 100 µM | EKVX > 100 µM | PC-3 > 100 µM | NCI-H23 > 100 µM | HOP-62 > 100 µM | SK-MEL-5 > 100 µM | UACC-257 > 100 µM | NCI-H522 > 100 µM | NCI-H460 > 100 µM | KM12 > 100 µM | K562 > 100 µM | SNB-75 37.9 µM | LOX IMVI > 100 µM | OVCAR-4 > 100 µM

O=C(c1ccccc1)N(C(=O)c1ccccc1)c1nc(SCc2ccccc2)ns1
inactive: A549 38.5 µM | RXF 393 31.7 µM | HCC 2998 22.1 µM | RPMI-8226 19.6 µM | NCI-H226 28.6 µM | EKVX 25.7 µM | PC-3 28.2 µM | NCI-H23 24 µM | HOP-62 32.9 µM | SK-MEL-5 16.2 µM | UACC-257 22.2 µM | NCI-H522 20 µM | NCI-H460 21.1 µM | KM12 34 µM | K562 29.1 µM | SNB-75 22.6 µM | MOLT-4 25.4 µM | LOX IMVI 28.6 µM | OVCAR-4 39.9 µM

CN(C)C1(C#N)CCC2(CC1)OCCO2
inactive: A549 > 100 µM | RXF 393 > 100 µM | HCC 2998 > 100 µM | RPMI-8226 > 100 µM | NCI-H226 > 100 µM | EKVX > 100 µM | NCI-H23 > 100 µM | HOP-62 > 100 µM | SK-MEL-5 > 100 µM | UACC-257 > 100 µM | NCI-H522 > 100 µM | NCI-H460 > 100 µM | KM12 > 100 µM | K562 > 100 µM | SNB-75 > 100 µM | MOLT-4 > 100 µM | LOX IMVI > 100 µM | OVCAR-4 > 100 µM

C=Cc1ccc(C)[n+](C[Si](C)(C)O[Si](C)(C)C[n+]2cc(C=C)ccc2C)c1
inactive: A549 71.8 µM | RXF 393 > 100 µM | HCC 2998 > 100 µM | RPMI-8226 > 100 µM | NCI-H226 > 100 µM | EKVX 54.2 µM | NCI-H23 > 100 µM | HOP-62 > 100 µM | SK-MEL-5 > 100 µM | UACC-257 > 100 µM | NCI-H522 > 100 µM | NCI-H460 > 100 µM | KM12 > 100 µM | K562 > 100 µM | SNB-75 > 100 µM | MOLT-4 > 100 µM | LOX IMVI > 100 µM | OVCAR-4 > 100 µM

O=c1[nH]c(N/N=C\C(O)C(O)C(O)CO)nc2ccccc12 (stereo not given)
inactive: A549 > 100 µM | RPMI-8226 > 100 µM | NCI-H226 > 100 µM | EKVX > 100 µM | PC-3 > 100 µM | NCI-H23 > 100 µM | HOP-62 > 100 µM | SK-MEL-5 > 100 µM | UACC-257 > 100 µM | NCI-H460 > 100 µM | KM12 > 100 µM | K562 > 100 µM | SNB-75 > 100 µM | MOLT-4 > 100 µM | LOX IMVI > 100 µM

O=C(/C=C/c1cccc([N+](=O)[O-])c1)c1cccnc1
inactive: A549 > 60 µM | RXF 393 18.1 µM | HCC 2998 36.5 µM | RPMI-8226 19.4 µM | NCI-H226 > 52.6 µM | EKVX > 100 µM | NCI-H23 17.7 µM | HOP-62 > 100 µM | SK-MEL-5 14.7 µM | UACC-257 23.9 µM | NCI-H522 7.98 µM | NCI-H460 50.7 µM | KM12 19.9 µM | K562 29.4 µM | SNB-75 > 52.8 µM | MOLT-4 26.4 µM | LOX IMVI 21.2 µM | OVCAR-4 > 91 µM

COC(=O)C(=O)CC(=O)CCn1ncc(Cl)c(Cl)c1=O
active: NCI-H522 0.57 µM
inactive: A549 19.9 µM | RXF 393 20.2 µM | HCC 2998 7.45 µM | RPMI-8226 12.8 µM | NCI-H226 24.2 µM | EKVX 19.5 µM | NCI-H23 13.2 µM | HOP-62 22.7 µM | SK-MEL-5 16.3 µM | UACC-257 15.8 µM | NCI-H460 19.7 µM | KM12 25.9 µM | K562 3.56 µM | SNB-75 20.8 µM | MOLT-4 6.19 µM | LOX IMVI 7.16 µM | OVCAR-4 4.62 µM

CC(C)NC(=O)O/N=C1\CCC2[C@@H]3CC=C4C[C@@H](OC(=O)NC(C)C)CC[C@]4(C)C3CC[C@]12C (stereo not given in full)
inactive: A549 1.47 µM | RXF 393 1.53 µM | HCC 2998 2.14 µM | NCI-H226 18.1 µM | EKVX 1.28 µM | NCI-H23 1.18 µM | HOP-62 6.53 µM | NCI-H522 1.53 µM | NCI-H460 1.38 µM | KM12 1.68 µM | SNB-75 1.87 µM | MOLT-4 1.42 µM | OVCAR-4 1.38 µM
active: RPMI-8226 0.695 µM | SK-MEL-5 0.425 µM | UACC-257 0.685 µM | K562 0.953 µM | LOX IMVI 1.03 µM

CCC1(CN(C)C)CC/C(=C\c2ccc(OC)c(OC)c2)C1=O (stereo not given)
inactive: A549 > 100 µM | RXF 393 > 100 µM | HCC 2998 > 100 µM | RPMI-8226 18.2 µM | NCI-H226 > 100 µM | EKVX > 54.6 µM | NCI-H23 > 100 µM | HOP-62 > 100 µM | SK-MEL-5 > 74.3 µM | UACC-257 > 100 µM | NCI-H522 64.1 µM | NCI-H460 > 100 µM | KM12 > 100 µM | K562 57.4 µM | SNB-75 > 67.8 µM | MOLT-4 40.2 µM | LOX IMVI > 100 µM | OVCAR-4 > 100 µM

CC(=O)NC(CCCCNCc1ccccc1)C(=O)NCc1ccccc1 (stereo not given)
inactive: A549 > 100 µM | RXF 393 > 100 µM | HCC 2998 > 100 µM | RPMI-8226 > 100 µM | NCI-H226 > 100 µM | EKVX > 100 µM | NCI-H23 > 100 µM | HOP-62 > 100 µM | SK-MEL-5 > 100 µM | UACC-257 > 100 µM | NCI-H522 > 100 µM | NCI-H460 > 100 µM | KM12 > 100 µM | K562 > 100 µM | SNB-75 30.5 µM | MOLT-4 > 100 µM | LOX IMVI > 100 µM | OVCAR-4 > 100 µM
